Laboratory results reported in patent US20030157194A1, “Method for treating cellulite” (priority 2002, published 2003).

Assays:
cellulite-affected skin [1] = experiment: topical treatment of cellulite-affected skin on thighs and buttocks of female persons by gliding a solid salt block; assay type: in vivo, human
cellulite-affected skin [2] = experiment: topical treatment of cellulite-affected skin on the sides of a test subject by gliding a solid salt block; assay type: in vivo, human; conditions: person
Source text: […] This person may be a afflicted with cellulite on their sides, between their armpits and their waist.
Rather, […] sides are left moistened. Then, […] areas of his sides, by very gently gliding the block in dabbing motions, circular motions, up and down motions, or zigzag motions (the motions being insufficient to cause debridement and abrasion of the affected skin) on the moistened areas for about 15 to about 30 seconds. […]
This once daily application is continued for 5 weeks.

[Cl-].[Na+] [NaCl, sodium chloride]
state of cellulite on continued application (cellulite-affected skin [1]; female, continued once per day application after 5 weeks): remained free of cellulite
state of cellulite at the end of 2 weeks (cellulite-affected skin [1]; person, pre-moistened skin, once daily application for about 15 to 30 seconds, end of 2 weeks): alleviated
state of cellulite at the end of 5 weeks (cellulite-affected skin [1]; person, pre-moistened skin, once daily application, end of 5 weeks): completely eliminated
state of cellulite on continued application (cellulite-affected skin [2]; continued once per day application after 5 weeks): remain smooth and free of cellulite
state of cellulite at the end of 5 weeks (cellulite-affected skin [2]; pre-moistened skin, once daily, end of 5 weeks): completely eliminated
